Among the data in patent US8445689B2, “Pesticides” (Dow AgroSciences, LLC., priority 2008, dated 2013) are pest or weed control and melting point values, retold here.

The test system of series [1] is Green Peach Aphid (Myzus persicae). Kind of series: Insecticidal test for green peach aphid in foliar spray assay on cabbage. The following applies: 72 h, read-out: Rating against green peach aphid on cabbage (foliar spray). It is filed as in vivo. The method, then:
Compounds 1-67 were tested against green peach aphid using procedures described hereinafter.
Insecticidal Test for Green Peach Aphid (Myzus persicae) in Foliar Spray Assay
Cabbage seedlings grown in 3-inch pots, with 2-3 small (3-5 cm) true leaves, were used as test substrate. The seedlings were infested with 20-50 green peach aphids (wingless adult and nymph) 1-2 d prior to chemical application. Four seedlings were used for each treatment. Compounds (2 mg) were dissolved in 2 mL of acetone-methanol (1:1) solvent, forming stock solutions of 1000 ppm. The stock solutions were diluted 5× with 0.025% Tween 20 in H2O to obtain a solution at 200 ppm. A hand-held Devilbiss aspirator sprayer was used for spraying a solution to both sides of cabbage leaves until runoff. Reference plants (solvent check) were sprayed with the diluent only. Treated plants were held in a holding room for 3 d at approximately 23° C. and 40% RH prior to grading. Evaluation was conducted by counting the number of live aphids per plant under a microscope. Insecticidal activity was measured by using Abbott's correction formula: Corrected % Control=100*(X−Y)/X • where X=No. of live aphids on solvent check plants • Y=No. of live aphids on treated plants

[2] abbreviates: 200 ppm foliar spray on cabbage seedlings, graded after 3 d, corrected % control (Abbott).

Read-outs that look alike come from different tables or passages of the source.

The term melting point denotes the temperature, or range, at which the solid turns liquid. `CC(c1ccc(C(F)(F)F)nc1)S(C)(=O)=NC(=S)Nc1ccc(Cl)cc1` (stereo not shown) [Compound 20]: the melting point was 181 to 183 °C. For the same molecule, the pest or weed control at 200 ppm in series [1] (setting [2]) was below 80%.
With `CS(=O)(Cc1ccc(Cl)nc1)=N/C(N)=N/O` (stereo not shown) [Compound 39, N-[[(6-chloropyridin-3-yl)methyl](methyl)oxido-λ^4-sulfanylidene]-N″-hydroxyguanidine], the melting point fell in the range of 156 to 158 °C. Further, the pest or weed control at 200 ppm in series [1] (setting [2]) fell in the range of 80 to 100%.
On the same counts, the results for `CC(c1ccc(C(F)(F)F)cc1)S(C)(=O)=NC(N)=S` (stereo not shown) [Compound 35, N-(methyl(oxido){1-[4-(trifluoromethyl)phenyl]ethyl}-λ^4-sulfanylidene)thiourea] are 166 to 168 °C and below 80%.
In turn, `CC(c1ccc(C(F)(F)F)nc1)S(C)(=O)=NC(=S)NC(=O)OCC1c2ccccc2-c2ccccc21` (stereo not shown) [Compound 9] had a melting point of 105 to 107 °C. The pest or weed control at 200 ppm in series [1] (foliar) lay within 80 to 100%.
`CC(c1ccc(C(F)(F)F)nc1)S(C)(=O)=N/C(N)=N/O` (stereo not shown) [Compound 38, N″-hydroxy-N-(methyl(oxido){1-[6-(trifluoromethyl)pyridin-3-yl]ethyl}-λ^4-sulfanylidene)guanidine] registered a melting point of 157 to 159 °C. The pest or weed control at 200 ppm in series [1] (setting [2]) lay in the range of 80 to 100%.
On the same counts, the results for `COC(=O)CCC(=O)NC(=S)N=S(C)(=O)C(C)c1ccc(C(F)(F)F)nc1` (stereo not shown) [Compound 37, methyl 4-({[(methyl(oxido){1-[6-(trifluoromethyl)pyridin-3-yl]ethyl}-λ^4-sulfanylidene)amino]carbonothioyl}amino)-4-oxobutanoate] are 131 to 133 °C and 80 to 100%.
On the same counts, the results for `CC(c1ccc(C(F)(F)F)nc1)S(C)(=O)=NC(=S)NC1CC1` (stereo not shown) [Compound 15] are 154 to 156 °C and 80 to 100%.
As to `CS(=O)(Cc1ccc(C(F)(F)F)nc1)=NC(=S)NC(=O)OCC1c2ccccc2-c2ccccc21` (stereo not shown) [Compound 28, 9H-Fluoren-9-ylmethyl[(methyl(oxido){[6-(trifluoromethyl)pyridin-3-yl]methyl}-λ^4-sulfanylidene)amino]carbonothioylcarbamate], the melting point lay in the range of 92 to 97 °C. Besides, the pest or weed control at 200 ppm in series [1] (foliar) was below 80%.
`CC(c1ccc(C(F)(F)F)nc1)S(C)(=O)=NC(=S)NC1CCCCC1` (stereo not shown) [Compound 7] displayed a melting point of 170 to 172 °C. For the same molecule, the pest or weed control at 200 ppm in series [1] (setting [2]) was in the range of 80 to 100%.
Taken in the same sequence, the figures for `Cc1ccc(C(C)S(C)(=O)=NC(N)=S)cn1` (stereo not shown) [Compound 33, N-{methyl[1-(6-methylpyridin-3-yl)ethyl]oxido-λ^4-sulfanylidene}-thiourea] were 137 to 140 °C and 80 to 100%.
On the same counts, the results for `NC(=S)N=S1(=O)CCCC1c1ccc(Cl)nc1` (stereo not shown) [Compound 36, N-[2-(6-chloropyridin-3-yl)-1-oxidotetrahydro-1H-1λ^4-thien-1-ylidene]thiourea] are 168 to 172 °C and 80 to 100%.
Molecule `CS(=O)(Cc1ccc(Cl)nc1)=NC(=S)NC(=O)OCC1c2ccccc2-c2ccccc21` (stereo not shown) [Compound 30, 9H-Fluoren-9-ylmethyl{[[(6-chloropyridin-3-yl)methyl](methyl)oxido-λ^4-sulfanylidene]amino}carbonothioylcarbamate] showed a melting point of 98 to 101 °C. For the same molecule, the pest or weed control at 200 ppm in series [1] (foliar) is below 80%.
Molecule `CC(C)NC(=S)N=S(C)(=O)C(C)c1ccc(C(F)(F)F)nc1` (stereo not shown) [Compound 14] came in with a melting point of 153 to 155 °C. In series [1] (setting [2]), the pest or weed control at 200 ppm is 80 to 100%.
On the same counts, the results for `COc1ccc(NC(=S)N=S(C)(=O)C(C)c2ccc(C(F)(F)F)nc2)cc1` (stereo not shown) [Compound 5] are 167 to 169 °C and below 80%.
With `CC(c1ccc(C(F)(F)F)nc1)S(C)(=O)=NC(N)=S` (stereo not shown) [Compound 22, N-(methyl(oxido){1-[6-(trifluoromethyl)pyridin-3-yl]ethyl}-λ^4-sulfanylidene)thiourea], the melting point was 145 to 147 °C. Also, the pest or weed control at 200 ppm in series [1] (setting [2]) was in the range of 80 to 100%.
Regarding `CC(c1ccc(C(F)(F)F)cc1)S(C)(=O)=NC(=S)NC(=O)OCC1c2ccccc2-c2ccccc21` (stereo not shown) [Compound 34, 9H-Fluoren-9-ylmethyl[(methyl(oxido){1-[4-(trifluoromethyl)phenyl]-ethyl}-λ^4-sulfanylidene)amino]carbonothioylcarbamate], the melting point is 86 to 93 °C. In addition, in series [1] (foliar), the pest or weed control at 200 ppm was below 80%.
For `CS(=O)(Cc1ccc(Cl)nc1)=NC(N)=S` (stereo not shown) [Compound 31, N-[[(6-chloropyridin-3-yl)methyl](methyl)oxido-λ^4-sulfanylidene]thiourea], the melting point is 155 to 158 °C. In addition, the pest or weed control at 200 ppm in series [1] (setting [2]) lay within 80 to 100%.
